Measurements from ChEMBL document CHEMBL3856270, “Structure-activity relationship of cyclic pentapeptide malformins as fibrinolysis enhancers” (Bioorg Med Chem Lett, 2016).
Calls of active or inactive are those of the source. The rule behind the calls is not given here.

What was measured:
[1] = Cytotoxicity against human U937 cells assessed as reduction in cell viability after 24 hrs by MTT assay; assay type: toxicity, cell-based, U-937; settings: for IC50 at 24 h: human, U937 cells
U-937 [2] = experiment: Pro-fibrinolytic activity in human U937 cells supplemented with human platelet-poor plasma assessed as [125I]-fibrin degradation up to 5 uM after 3 hrs by gamma counting method; assay type: functional, cell-based
U-937 [3] = experiment: Pro-fibrinolytic activity in human U937 cells supplemented with human platelet-poor plasma assessed as [125I]-fibrin degradation after 3 hrs by gamma counting method; assay type: functional, cell-based
U-937 [4] = experiment: Pro-fibrinolytic activity in human U937 cells supplemented with human platelet-poor plasma assessed as [125I]-fibrin degradation at >20 uM after 3 hrs by gamma counting method; assay type: functional, cell-based

SMILES | IC50 at 24 h [1] | Activity (U-937 [2]) | further results
CC[C@H](C)[C@@H]1NC(=O)[C@@H](CC(C)C)NC(=O)[C@H](C(C)C)NC(=O)[C@H]2CSSC[C@@H](NC1=O)C(=O)N2 (stereo in doubt; form 1) [listing 1 of 2 here] | – | – | IC50 ([1]; u-937): 800 nM
CC[C@H](C)[C@H](N)C(=O)N[C@@H]1CSSC[C@H](C(=O)N[C@H](C(=O)N[C@H](CC(C)C)C(=O)O)C(C)C)NC1=O | > 5000 nM | – | –
CC[C@H](C)[C@@H]1NC(=O)[C@@H](C)NC(=O)[C@H](C(C)C)NC(=O)[C@H]2CSSC[C@@H](NC1=O)C(=O)N2 | 2200 nM | Active | –
CC(C)C[C@H]1NC(=O)[C@H](C(C)C)NC(=O)[C@H]2CSSC[C@@H](NC(=O)[C@H](Cc3ccccc3)NC1=O)C(=O)N2 | < 100 nM | Active | –
CC[C@H](C)[C@@H]1NC(=O)[C@@H](CC(C)C)NC(=O)[C@H](C(C)C)NC(=O)[C@H]2CSSC[C@@H](NC1=O)C(=O)N2 (stereo in doubt; form 2) [listing 1 of 2 here] | – | – | Activity (U-937 [3]): Dose-dependent effect
CC[C@H](C)[C@@H]1NC(=O)[C@@H](CCCCNC(=O)OC(C)(C)C)NC(=O)[C@H](C(C)C)NC(=O)[C@H]2CSSC[C@@H](NC1=O)C(=O)N2 | 200 nM | Active | –
CC(C)C[C@H]1NC(=O)[C@H](C(C)C)NC(=O)[C@H]2CSSC[C@@H](NC(=O)[C@H](CCCCN)NC1=O)C(=O)N2 | > 5000 nM | – | –
CC[C@H](C)[C@@H]1NC(=O)[C@@H](CC(C)C)NC(=O)[C@H](C(C)C)NC(=O)[C@@H](CSC(c2ccccc2)(c2ccccc2)c2ccccc2)NC(=O)[C@@H](CSC(c2ccccc2)(c2ccccc2)c2ccccc2)NC1=O | > 5000 nM | – | –
CC[C@H](C)[C@@H]1NC(=O)[C@@H](CC(C)C)NC(=O)[C@H](C(C)C)NC(=O)[C@@H](CSC)NC(=O)[C@@H](CSC)NC1=O | > 5000 nM | – | –
CC[C@H](C)[C@@H]1NC(=O)[C@@H](CC(C)C)NC(=O)[C@H](C(C)C)NC(=O)[C@@H](CS)NC(=O)[C@@H](CS)NC1=O | > 5000 nM | – | Activity (U-937 [4]): Active
CC[C@H](C)[C@@H]1NC(=O)[C@@H](CC(C)C)NC(=O)[C@H](CCCCNC(=O)OC(C)(C)C)NC(=O)[C@H]2CSSC[C@@H](NC1=O)C(=O)N2 | < 100 nM | Active | –
CC[C@H](C)[C@@H]1NC(=O)[C@@H](CC(C)C)NC(=O)[C@H](C)NC(=O)[C@H]2CSSC[C@@H](NC1=O)C(=O)N2 | 1400 nM | – | –
CC(C)C[C@H]1NC(=O)[C@H](C(C)C)NC(=O)[C@H]2CSSC[C@@H](NC(=O)[C@H](C)NC1=O)C(=O)N2 | 2800 nM | Active | –
CC[C@H](C)[C@@H]1NC(=O)[C@@H](CC(C)C)NC(=O)[C@H](CCCCN)NC(=O)[C@H]2CSSC[C@@H](NC1=O)C(=O)N2 | > 5000 nM | – | –
CC[C@H](C)[C@@H]1NC(=O)[C@@H](CCCCN)NC(=O)[C@H](C(C)C)NC(=O)[C@H]2CSSC[C@@H](NC1=O)C(=O)N2 | > 5000 nM | – | –
N[C@@H]1CSSC[C@H](C(=O)O)NC1=O | > 5000 nM | – | –
CC[C@H](C)[C@@H]1NC(=O)[C@@H](CC(C)C)NC(=O)[C@H](C(C)C)NC(=O)[C@H]2CSSC[C@@H](NC1=O)C(=O)N2 (stereo in doubt; form 1) [listing 2 of 2 here] | – | – | Activity (U-937 [3]): Dose-dependent effect
CC(C)C[C@H]1NC(=O)[C@H](C(C)C)NC(=O)[C@H]2CSSC[C@@H](NC(=O)[C@H](CCCCNC(=O)OC(C)(C)C)NC1=O)C(=O)N2 | < 100 nM | Active | –
CC[C@H](C)[C@@H]1NC(=O)[C@@H](Cc2ccccc2)NC(=O)[C@H](C(C)C)NC(=O)[C@H]2CSSC[C@@H](NC1=O)C(=O)N2 | 1300 nM | Active | –
CC[C@H](C)[C@@H]1NC(=O)[C@@H](CC(C)C)NC(=O)[C@H](Cc2ccccc2)NC(=O)[C@H]2CSSC[C@@H](NC1=O)C(=O)N2 | < 100 nM | Active | –
CC[C@H](C)[C@@H]1NC(=O)[C@@H](CC(C)C)NC(=O)[C@H](C(C)C)NC(=O)[C@H]2CSSC[C@@H](NC1=O)C(=O)N2 (stereo in doubt; form 2) [listing 2 of 2 here] | 760 nM | – | –
